# According to PubChem BioAssay (NCI):
#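 Values below derive from 48-hour exposures of cells grown in 96-well plates, with endpoints linearly interpolated between the two concentrations bracketing the appropriate inhibition level. TGI: concentration producing complete growth inhibition.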
# Legend:
# Assay in all cases: NCI-60 cell line screen, 48 h
# SNB-75 CNS = system: SNB-75 CNS
# NCI-H23 lung = system: NCI-H23 lung
# RXF 393 renal = system: RXF 393 renal
# MOLT-4 leukemia = system: MOLT-4 leukemia
# HCT-116 colon = system: HCT-116 colon
# HOP-62 NSCLC = system: HOP-62 NSCLC
# OVCAR-4 ovarian = system: OVCAR-4 ovarian
# OVCAR-5 ovarian = system: OVCAR-5 ovarian
# MDA-MB-435 = system: MDA-MB-435
# BT-549 breast = system: BT-549 breast
# CAKI-1 renal = system: CAKI-1 renal
# NCI-H460 lung = system: NCI-H460 lung
# RPMI-8226 leukemia = system: RPMI-8226 leukemia
# MDA-N = system: MDA-N
# K-562 leukemia = system: K-562 leukemia
# CCRF-CEM leukemia = system: CCRF-CEM leukemia
SMILES,TGI (SNB-75 CNS) [µM],TGI (NCI-H23 lung) [µM],TGI (RXF 393 renal) [µM],TGI (MOLT-4 leukemia) [µM],TGI (HCT-116 colon) [µM],TGI (HOP-62 NSCLC) [µM],TGI (OVCAR-4 ovarian) [µM],TGI (OVCAR-5 ovarian) [µM],TGI (MDA-MB-435) [µM],TGI (BT-549 breast) [µM],TGI (CAKI-1 renal) [µM],TGI (NCI-H460 lung) [µM],TGI (RPMI-8226 leukemia) [µM],TGI (MDA-N) [µM],TGI (K-562 leukemia) [µM],TGI (CCRF-CEM leukemia) [µM]
CC(=N/NC(=S)Nc1c(C)n(C)n(-c2ccccc2)c1=O)/C(C)=N\NC(=S)Nc1c(C)n(C)n(-c2ccccc2)c1=O,> 100,> 100,> 100,> 100,> 100,> 100,> 100,> 100,> 100,> 100,> 100,> 100,–,–,–,–
O=[N+]([O-])/C(Cl)=C(\Nc1ccccc1)C(Cl)=C(Cl)Cl,20.5,> 100,> 100,> 100,> 100,56.6,> 100,> 100,35.1,–,> 100,> 100,78.9,> 100,68.6,42.9
Cc1cn(CC2=NCC(C)(C)CN2)c(=O)[nH]c1=O,> 100,> 100,> 100,–,> 100,> 100,–,> 100,–,> 100,–,> 100,–,> 100,–,> 100
COC(=O)[C@H]1C=C[C@@H](C)n2c(=O)c3ccccc3c(=O)n21,> 100,> 100,> 100,> 100,> 100,> 100,> 100,> 100,–,–,> 100,> 100,> 100,–,> 100,> 100
CC(=O)c1c(O)ccc2c1CC(CC=O)O2 (stereo not drawn),> 100,> 100,> 100,> 100,41.4,> 100,> 100,> 100,–,–,> 100,> 100,> 100,–,> 100,> 100
CN(C)CCCSc1c2ccccc2nc2cc(NCC(=O)Nc3ccccc3-c3ccccc3NC(=O)CNc3ccc4c(SCCCN(C)C)c5ccccc5nc4c3)ccc12,> 100,> 100,> 100,> 100,> 100,> 100,> 100,> 100,–,–,> 100,> 100,> 100,–,> 100,92.7
C[C@@H]1C[C@@H](O)[C@@]2(O)C13CC(=O)OC(C3)[C@@H](C)[C@@]2(C)CO (stereo partly drawn),–,> 100,> 100,> 100,> 100,> 100,> 100,> 100,> 100,–,–,> 100,> 100,> 100,> 100,–
NC(=O)C12C3C4C1C1C2C3C41C(N)=O (stereo not drawn),> 100,> 100,> 100,> 100,> 100,> 100,> 100,> 100,–,–,> 100,> 100,> 100,–,> 100,> 100
NC(=O)C(=CN1C(=O)CC(=O)NC1=S)C(N)=O,> 100,> 100,> 100,> 100,> 100,> 100,> 100,> 100,> 100,> 100,> 100,> 100,–,–,–,–
COc1ccc(/C=C2\N=C(c3ccccc3)N(Nc3nnc(NN4C(=O)/C(=C/c5ccc(OC)cc5)N=C4c4ccccc4)c4ccccc34)C2=O)cc1,> 100,> 100,> 100,> 100,> 100,> 100,> 100,> 100,–,–,–,> 100,> 100,–,> 100,> 100
Cc1[nH]n(-c2nc3c(c(=O)[nH]2)CCC3)c(=O)c1CCO,46.5,> 100,> 100,> 100,> 100,> 100,> 100,> 100,> 100,–,> 100,> 100,> 100,> 100,> 100,> 100
Nc1nc(N)nc(-c2cnccn2)n1,> 100,> 100,> 100,> 100,> 100,> 100,–,> 100,> 100,> 100,> 100,> 100,–,–,> 100,> 100
CO/C(=N\N=C\c1ccc(OC)cc1OC)c1ccncc1,> 10,> 10,> 10,> 10,> 10,> 10,–,> 10,–,–,–,> 10,> 10,–,> 10,> 10
Cn1c(=O)c2c(nc(C[N+]3([O-])CCOCC3)n2C)n(C)c1=O,> 100,> 100,> 100,> 100,> 100,> 100,–,> 100,–,–,> 100,> 100,> 100,–,> 100,> 100
CC1(C)C=[N+]([O-])C(C)(C)N1,> 100,> 100,> 100,> 100,> 100,> 100,> 100,> 100,> 100,–,> 100,> 100,> 100,> 100,> 100,> 100
COc1ccc(-c2onc(-c3c(C)cc(C)cc3C)c2C2=NCCCN2)cc1,–,> 100,> 100,> 100,> 100,> 100,> 100,> 100,–,–,44.8,> 100,86.5,–,> 100,> 100
COc1cccc(/C(C=O)=C(\Cl)c2ccc(OC)c(OC)c2)c1,21.3,24.9,25.1,42.5,22.5,25.1,39.1,36.9,–,–,45.1,28,48.8,–,46.2,33.5
O=C1/C(=C/c2ccc(Cl)cc2)NC(=S)N1CN1CCOCC1,> 100,> 100,–,> 100,> 100,> 100,> 100,> 100,> 100,–,–,–,> 100,> 100,> 100,> 100

SMILES,TGI (SNB-75 CNS) [µM],TGI (NCI-H23 lung) [µM],TGI (RXF 393 renal) [µM],TGI (MOLT-4 leukemia) [µM],TGI (HCT-116 colon) [µM],TGI (HOP-62 NSCLC) [µM],TGI (OVCAR-4 ovarian) [µM],TGI (OVCAR-5 ovarian) [µM],TGI (MDA-MB-435) [µM],TGI (BT-549 breast) [µM],TGI (CAKI-1 renal) [µM],TGI (NCI-H460 lung) [µM],TGI (RPMI-8226 leukemia) [µM],TGI (MDA-N) [µM],TGI (K-562 leukemia) [µM],TGI (CCRF-CEM leukemia) [µM]
CC1(C)OC(=O)C(C)(C)OC1=O,> 100,> 100,> 100,> 100,> 100,> 100,> 100,> 100,> 100,–,> 100,> 100,> 100,> 100,> 100,> 100
NC(=O)c1csc(CCCCCCc2nc(C(N)=O)cs2)n1,> 100,> 100,> 100,> 100,> 100,> 100,> 100,> 100,–,–,> 100,> 100,> 71.4,–,> 62.8,> 62.4
CC(=O)OC1OC2C(NC(=O)OC(C)(C)C)C1CC2(OCc1ccccc1)OCc1ccccc1 (stereo not drawn),> 100,41.7,32.2,62.9,31.6,76.3,–,82.4,–,–,> 100,> 100,43.3,–,> 94.8,82.9
COc1ccc(C2CCC(Cl)(OC)CC2C=O)cc1 (stereo not drawn),> 100,> 100,43.9,> 100,> 100,> 100,> 100,> 100,–,–,> 100,> 100,> 100,–,> 100,> 100
O=C1C(Cl)C(c2ccc(Cl)cc2)N1n1cnc2ccccc2c1=O (stereo not drawn),> 100,> 100,> 100,> 100,> 100,> 100,> 100,> 100,–,–,> 100,> 100,> 100,–,> 100,> 100
Cc1nccc2c1cnc1ccnn12,> 100,> 100,> 100,> 100,> 100,> 100,> 100,> 100,–,–,> 100,> 100,> 100,–,> 100,> 100
COc1ccc2c(c1)N(C(C)=O)CN1C(=O)CCC21 (stereo not drawn),> 100,> 100,> 100,> 100,> 100,> 100,> 100,> 100,> 100,–,> 100,> 100,> 100,> 100,> 100,> 100
O=C(O)c1cc(-c2ccccc2O)nc2ccccc12,> 100,> 100,–,> 100,> 100,> 100,> 100,> 100,–,–,> 100,> 100,> 100,–,> 100,> 100
NC12CC3CC(C1)CC(Cl)(C3)C2,> 100,> 100,> 100,> 100,> 100,> 100,–,> 100,–,–,–,> 100,> 100,–,> 100,> 100
CC1=Nc2c([nH]c(=S)[nH]c2=O)NC(c2ccc(Cl)c(Cl)c2)C1 (stereo not drawn),> 100,40.2,38.2,> 100,30.1,> 100,57.9,> 100,–,–,> 100,> 100,> 100,–,> 100,> 100
COc1ccc(Nc2nc(N)c(C(=O)c3ccc(OC)cc3)s2)cc1,6.26,> 93.4,4.55,–,> 28.9,–,> 100,> 100,0.208,–,> 48.6,> 54.8,0.659,–,> 35.8,–
CCOC(=O)C1=C(O)c2ccccc2C(=O)C1=O,> 100,> 100,> 100,> 100,> 100,> 100,> 100,> 100,–,–,> 100,> 100,> 100,–,> 100,> 100
CO[C@@](c1ccccc1)(c1nc(C#N)c(N)o1)C(F)(F)F,> 100,> 100,> 100,> 100,> 100,> 100,> 100,–,> 100,–,> 100,–,> 100,> 100,> 100,74.7
CC1(C)[C@@H]2C[C@H]1C(Cc1ccc(C[C@H]3c4cc(-c5ccccn5)ncc4[C@H]4C[C@@H]3C4(C)C)cc1)c1cc(-c3ccccn3)ncc12 (stereo partly drawn),> 100,37,77.8,–,18.3,11,–,> 100,23.3,> 100,> 100,13.8,70,–,> 100,–
CC1(C)C=C(/C=N/Nc2ccc(Br)cc2)C(C#N)=C(O)C1(C#N)C#N,> 100,> 100,91.3,89.8,> 100,> 100,> 100,> 100,> 100,–,95.4,> 100,> 100,> 100,> 100,> 100
NC1=NC2(O)c3ccccc3C(=O)C2(O)N1 (stereo not drawn),> 100,> 100,> 100,> 100,> 100,> 100,> 100,> 100,–,–,> 100,> 100,> 100,–,> 100,> 100
Cc1cc(NC(=O)C(=O)Cc2cnc3ccccc3n2)c(S(=O)(=O)O)cc1Cl,> 100,> 100,–,> 100,> 100,–,> 100,> 100,> 100,> 100,> 100,> 100,> 100,–,> 100,> 100
